Entries after “also recorded” stand apart in the source; their conditions may differ.
Assays:
[1] = biological target: human NK1 receptor (Homo sapiens, UniProt P25103); assay type: cell-based; conditions: shift of the dose-response curve of SP, aequorin luminescence, CHO-NK1 cells
[2] = cited from earlier work
[3] = acute pain models; chronic trials; cited from earlier work

Sequence of human NK1 receptor (P25103 whole entry): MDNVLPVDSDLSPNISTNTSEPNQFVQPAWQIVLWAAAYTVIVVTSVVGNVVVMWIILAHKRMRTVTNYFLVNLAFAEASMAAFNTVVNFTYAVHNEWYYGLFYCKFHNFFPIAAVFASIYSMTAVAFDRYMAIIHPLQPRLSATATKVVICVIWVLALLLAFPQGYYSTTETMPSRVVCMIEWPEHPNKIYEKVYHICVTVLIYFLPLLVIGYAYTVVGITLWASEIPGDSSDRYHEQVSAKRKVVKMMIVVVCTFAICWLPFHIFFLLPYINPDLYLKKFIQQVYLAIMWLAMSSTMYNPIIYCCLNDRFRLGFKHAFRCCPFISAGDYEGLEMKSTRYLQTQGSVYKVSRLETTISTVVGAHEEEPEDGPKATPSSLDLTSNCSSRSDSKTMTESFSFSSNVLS

Compound	NK1R antagonism (in words) [1]	Attenuation of neuropathic pain (in words) [2]	Antinociception and opioid-induced tolerance (in words) [3]
CC(=O)N[C@H]1Cc2c([nH]c3ccccc23)CN(CC(=O)N(C)Cc2cc(C(F)(F)F)cc(C(F)(F)F)c2)C1=O [28a]	did not show any antagonist properties	–	–
CC(=O)N1Cc2[nH]c3ccccc3c2C[C@H]1C(=O)N(C)Cc1cc(C(F)(F)F)cc(C(F)(F)F)c1 [32a]	did not show any antagonist properties	–	–
CC(=O)N[C@H]1Cc2ccccc2CN(CC(=O)NCc2cc(C(F)(F)F)cc(C(F)(F)F)c2)C1=O [compound 19, Ac-(S)-Aba-Gly-NH-3′,5′-(CF3)2-Bn]	able to counteract the effect of SP; also recorded: moderate	–	–
CC(=O)N[C@H]1Cc2ccccc2CN(CC(=O)N(C)Cc2cc(C(F)(F)F)cc(C(F)(F)F)c2)C1=O [compound 20, Ac-(S)-Aba-Gly-NMe-3′,5′-(CF3)2-Bn]	able to counteract the effect of SP and good	–	–
CC(=O)N1Cc2ccccc2C[C@H]1C(=O)NCc1cc(C(F)(F)F)cc(C(F)(F)F)c1 [compound 22]	lack of antagonism	–	–
CC(=O)N1Cc2ccccc2C[C@H]1C(=O)N(C)Cc1cc(C(F)(F)F)cc(C(F)(F)F)c1 [compound 23, Ac-Tic-NMe-3′,5′-(CF3)2-Bn]	able to counteract the effect of SP and good	–	–
CC(=O)N[C@H]1Cc2c([nH]c3ccccc23)CN(Cc2cc(C(F)(F)F)cc(C(F)(F)F)c2)C1=O [compound 30]	did not show any antagonist properties	–	–
H-Tyr-D-Ala-Gly-Phe-Met-Pro-Leu-Trp-NH-3′,5′-Bn(CF3)2 [compound 6]	–	potently attenuate neuropathic pain without producing opioid-induced tolerance	enhanced antinociception in acute pain models and prevention of opioid-induced tolerance in chronic trials
H-Tyr-D-Ala-Gly-Phe-Met-Pro-Leu-Trp-O-3′,5′-Bn(CF3)2 [compound 7]	–	potently attenuate neuropathic pain without producing opioid-induced tolerance	enhanced antinociception in acute pain models and prevention of opioid-induced tolerance in chronic trials
